Data published in patent US9796711B2, “Substituted pyrazolo[3,4-b]pyridin-6-carboxylic acids and method of use” (AbbVie S.àr.l., priority 2015, dated 2017).

What was measured:
[1] = target: T1, ΔF508-CFTR (Homo sapiens, UniProt P13569, DEL508-508); assay: CFTR cell surface levels using HRP-tagged ΔF508-CFTR expressing CFBE cells, in the presence of a co-corrector; format: cell-based
T1 construct: host or cells: CFBE41o-, doxycycline-inducible
Method in brief: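 Cells were seeded with 0.5 μg/mL doxycycline and held 68 h at 37 °C. Test compounds plus 3 μM co-corrector (final 0.1% DMSO) were then added for 20 h at 33 °C. Washed cells received HRP substrate, and luminescence was normalized between DMSO and 3 μM co-corrector controls.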

[2] = target: T1, ΔF508-CFTR; assay: CFTR cell surface levels using HRP-tagged ΔF508-CFTR expressing CFBE cells, intrinsic corrector capacity; format: cell-based
Method in brief: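 Here the cells express ΔF508-CFTR with horseradish peroxidase inserted in extracellular loop 4, so only rescued channel at the surface gives luminescent signal. Compounds act on their own, 20 h at the reduced temperature of 33 °C; values are percent activity relative to DMSO and a 3 μM corrector.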

[3] = HRP-tagged ΔF508-CFTR expressing CFBE cells, in the presence of 3 μM co-corrector
[4] = HRP-tagged ΔF508-CFTR expressing CFBE cells, in the presence of 3 μM co-corrector, read-out: EC50
[5] = HRP-tagged ΔF508-CFTR expressing CFBE cells, intrinsic corrector capacity (no co-corrector), 33° C., 20 hours
[6] = HRP-tagged ΔF508-CFTR expressing CFBE cells, intrinsic corrector capacity (no co-corrector), 33° C., 20 hours, read-out: EC50

T1 sequence (P13569 with tags, fused parts or gaps DEL508-508): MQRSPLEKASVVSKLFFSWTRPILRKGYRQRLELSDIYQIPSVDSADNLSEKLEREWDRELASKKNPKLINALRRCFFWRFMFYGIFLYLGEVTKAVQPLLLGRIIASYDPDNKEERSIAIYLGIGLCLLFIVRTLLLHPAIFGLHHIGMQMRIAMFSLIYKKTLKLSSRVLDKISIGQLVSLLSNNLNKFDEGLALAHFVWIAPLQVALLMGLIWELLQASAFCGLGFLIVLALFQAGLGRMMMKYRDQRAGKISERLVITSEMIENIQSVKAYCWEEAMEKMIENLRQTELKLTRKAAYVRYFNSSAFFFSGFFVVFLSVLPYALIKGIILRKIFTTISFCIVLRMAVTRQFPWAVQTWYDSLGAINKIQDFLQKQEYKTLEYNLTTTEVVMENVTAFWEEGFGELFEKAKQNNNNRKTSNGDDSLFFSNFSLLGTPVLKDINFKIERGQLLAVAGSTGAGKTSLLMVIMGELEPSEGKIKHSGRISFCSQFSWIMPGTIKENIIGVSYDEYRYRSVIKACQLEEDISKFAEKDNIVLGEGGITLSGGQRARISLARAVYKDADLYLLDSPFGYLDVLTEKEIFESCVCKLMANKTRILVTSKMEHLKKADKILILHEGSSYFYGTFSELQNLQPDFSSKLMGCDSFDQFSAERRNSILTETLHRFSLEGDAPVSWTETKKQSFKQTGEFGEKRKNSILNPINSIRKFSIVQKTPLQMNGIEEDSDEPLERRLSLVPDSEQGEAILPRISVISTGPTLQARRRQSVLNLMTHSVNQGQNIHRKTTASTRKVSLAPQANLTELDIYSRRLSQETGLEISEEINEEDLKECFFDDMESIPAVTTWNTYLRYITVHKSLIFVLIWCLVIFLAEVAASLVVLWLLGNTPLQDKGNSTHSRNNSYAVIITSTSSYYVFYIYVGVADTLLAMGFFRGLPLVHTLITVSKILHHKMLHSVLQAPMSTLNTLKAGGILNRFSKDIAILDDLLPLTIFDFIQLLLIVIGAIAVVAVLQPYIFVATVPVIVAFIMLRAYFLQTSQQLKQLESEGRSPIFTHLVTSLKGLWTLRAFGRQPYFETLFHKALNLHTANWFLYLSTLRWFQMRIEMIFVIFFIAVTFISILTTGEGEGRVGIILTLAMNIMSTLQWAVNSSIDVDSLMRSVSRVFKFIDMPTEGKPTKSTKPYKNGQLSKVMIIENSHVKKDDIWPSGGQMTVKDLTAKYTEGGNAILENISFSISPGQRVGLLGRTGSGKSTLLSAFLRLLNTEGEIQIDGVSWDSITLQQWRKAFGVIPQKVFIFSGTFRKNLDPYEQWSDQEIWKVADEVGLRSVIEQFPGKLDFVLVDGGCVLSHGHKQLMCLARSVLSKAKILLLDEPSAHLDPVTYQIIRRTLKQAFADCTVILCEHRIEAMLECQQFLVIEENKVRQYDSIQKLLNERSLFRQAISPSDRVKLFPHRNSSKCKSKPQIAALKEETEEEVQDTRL

Row | Structure (SMILES) | % Activation [1, 3] [%] | EC50 [1, 4] [nM] | % Activation [2, 5] [%] | EC50 [2, 6] [nM] | EC50 [1] [nM] | EC50 [2] [nM]
1 | O=C(O)c1cc(OC(CN2CCOCC2)CN2CCOCC2)c2c(C3CCC3)nn(-c3ccccc3)c2n1 [compound 641, 4-{[1,3-bis(morpholin-4-yl)propan-2-yl]oxy}-3-cyclobutyl-1-phenyl-1H-pyrazolo[3,4-b]pyridine-6-carboxylic acid] | 239.75 | 2270 | 65.07 | 3330 | – | –
2 | O=C(O)c1cc(OCCCN2CCCCC2)c2c(C3CCC3)nn(-c3ccccc3)c2n1 [compound 642, 3-cyclobutyl-1-phenyl-4-[3-(piperidin-1-yl)propoxy]-1H-pyrazolo[3,4-b]pyridine-6-carboxylic acid] | 281.95 | 2400 | 125.9 | 3330 | – | –
3 | O=C(O)c1cc(OCCN2CCCCCC2)c2c(C3CCC3)nn(-c3ccccc3)c2n1 [compound 643, 4-[2-(azepan-1-yl)ethoxy]-3-cyclobutyl-1-phenyl-1H-pyrazolo[3,4-b]pyridine-6-carboxylic acid] | 271.8 | 1260 | 95.84 | 2900 | – | –
4 | CN1CCCN(CCOc2cc(C(=O)O)nc3c2c(C2CCC2)nn3-c2ccccc2)CC1 [compound 644, 3-cyclobutyl-4-[2-(4-methyl-1,4-diazepan-1-yl)ethoxy]-1-phenyl-1H-pyrazolo[3,4-b]pyridine-6-carboxylic acid] | 196.3 | 3330 | 42.75 | 3330 | – | –
5 | CN1CCC[C@]12C[C@@H](Oc1cc(C(=O)O)nc3c1c(C1CCC1)nn3-c1ccccc1)C2 [compound 645, 3-cyclobutyl-4-{[(2s,4r)-5-methyl-5-azaspiro[3.4]octan-2-yl]oxy}-1-phenyl-1H-pyrazolo[3,4-b]pyridine-6-carboxylic acid] | 270.05 | 409 | 111.55 | 1070 | – | –
6 | CCN(CC)CC1(N2CC(Oc3cc(C(=O)O)nc4c3c(C3CCC3)nn4-c3ccccc3)C2)COC1 [compound 646, 3-cyclobutyl-4-[(1-{3-[(diethylamino)methyl]oxetan-3-yl}azetidin-3-yl)oxy]-1-phenyl-1H-pyrazolo[3,4-b]pyridine-6-carboxylic acid] | 198 | 3330 | 45.39 | 3330 | – | –
7 | CC(C)N1CCC(Oc2cc(C(=O)O)nc3c2c(C2CCC2)nn3-c2ccccc2)CC1 [compound 647, 3-cyclobutyl-1-phenyl-4-{[1-(propan-2-yl)piperidin-4-yl]oxy}-1H-pyrazolo[3,4-b]pyridine-6-carboxylic acid] | 301.3 | 2010 | 119.9 | 2180 | – | –
8 | O=C(O)c1cc(OC2CCCCCC2)c2c(C3CCC3)nn(-c3ccccc3)c2n1 [compound 648, 3-cyclobutyl-4-(cycloheptyloxy)-1-phenyl-1H-pyrazolo[3,4-b]pyridine-6-carboxylic acid] | 296.1 | 203 | 90.745 | 263 | – | –
9 | O=C(O)c1cc(OC2CCCCCCC2)c2c(C3CCC3)nn(-c3ccccc3)c2n1 [compound 649, 3-cyclobutyl-4-(cyclooctyloxy)-1-phenyl-1H-pyrazolo[3,4-b]pyridine-6-carboxylic acid] | 314.65 | 225 | 107.6 | 432 | – | –
10 | CN1CC[C@@H](Oc2cc(C(=O)O)nc3c2c(C2CCC2)nn3-c2ccccc2)C1 [compound 650, 3-cyclobutyl-4-{[(3R)-1-methylpyrrolidin-3-yl]oxy}-1-phenyl-1H-pyrazolo[3,4-b]pyridine-6-carboxylic acid] | 193.6 | 3330 | 45.88 | 3330 | – | –
11 | CN1CC[C@H](Oc2cc(C(=O)O)nc3c2c(C2CCC2)nn3-c2ccccc2)C1 [compound 651, 3-cyclobutyl-4-{[(3S)-1-methylpyrrolidin-3-yl]oxy}-1-phenyl-1H-pyrazolo[3,4-b]pyridine-6-carboxylic acid] | 187.9 | 2200 | 54.22 | 3330 | – | –
12 | CC(C)c1nn(-c2ccc(F)cc2)c2nc(C(=O)O)cc(OCC3(C)CC(F)(F)C3)c12 [compound 652, 4-[(3,3-difluoro-1-methylcyclobutyl)methoxy]-1-(4-fluorophenyl)-3-(propan-2-yl)-1H-pyrazolo[3,4-b]pyridine-6-carboxylic acid] | 310.6 | 203 | 130.6 | 334 | – | –
13 | COCC(COC)Oc1cc(C(=O)O)nc2c1c(C(C)C)nn2-c1ccc(F)cc1 [compound 654, 4-[(1,3-dimethoxypropan-2-yl)oxy]-1-(4-fluorophenyl)-3-(propan-2-yl)-1H-pyrazolo[3,4-b]pyridine-6-carboxylic acid] | 245.5 | 3330 | 66.19 | 3330 | – | –
14 | O=C(O)c1cc(NC[C@@H]2CCCO2)c2c(C3CCC3)nn(-c3ccccc3)c2n1 [compound 655, 3-cyclobutyl-4-({[(2S)-oxolan-2-yl]methyl}amino)-1-phenyl-1H-pyrazolo[3,4-b]pyridine-6-carboxylic acid] | 340.2 | – | 165.6 | – | 1130 | 3100
15 | CC(C)c1nn(-c2ccc(F)cc2)c2nc(C(=O)O)cc(N3CCC(C4CCN(C)CC4)CC3)c12 [compound 661, 1-(4-fluorophenyl)-4-(1′-methyl [4,4′-bipiperidin]-1-yl)-3-(propan-2-yl)-1H-pyrazolo[3,4-b]pyridine-6-carboxylic acid] | 522.3 | 227 | 315 | 565 | – | –
16 | CC(C)(C)OC(=O)NC[C@@H]1CCN(c2cc(C(=O)O)nc3c2c(C2CCC2)nn3-c2ccccc2)C1 [compound 671, 4-[(3S)-3-{[(tert-butoxycarbonyl)amino]methyl}pyrrolidin-1-yl]-3-cyclobutyl-1-phenyl-1H-pyrazolo[3,4-b]pyridine-6-carboxylic acid] | 357.4 | – | 190.1 | – | 943 | 1610
17 | CC(C)(C)OC(=O)NC[C@H]1CCN(c2cc(C(=O)O)nc3c2c(C2CCC2)nn3-c2ccccc2)C1 [compound 672, 4-[(3R)-3-{[(tert-butoxycarbonyl)amino]methyl}pyrrolidin-1-yl]-3-cyclobutyl-1-phenyl-1H-pyrazolo[3,4-b]pyridine-6-carboxylic acid] | 343.15 | – | 141.6 | – | 553 | 748
18 | CN(C[C@@H]1CCN(c2cc(C(=O)O)nc3c2c(C2CCC2)nn3-c2ccccc2)C1)C(=O)OC(C)(C)C [compound 674, 4-[(3R)-3-{[(tert-butoxycarbonyl)(methyl)amino]methyl}pyrrolidin-1-yl]-3-cyclobutyl-1-phenyl-1H-pyrazolo[3,4-b]pyridine-6-carboxylic acid] | 323.85 | 380 | 158.5 | 521 | – | –
